# Experimental data: patent publication US4907606A, “Tobacco compositions, method and device for releasing essentially pure nicotine” (AB Leo, priority 1984, dated 1990)
# Like-named read-outs stand apart in the source and are kept apart here.
# Assay: Bioavailability: blood plasma nicotine levels after inhalation of air from the glass columns
# Assay type: in vivo
# Details: human, inhaled or intranasal, test persons abstained from nicotine for 12 h, read-out: Plasma nicotine, peak value
# Experimental: Untreated tobacco was used as reference.
# The bioavailability of nicotine, i.e. the blood plasma nicotine levels, after inhalation of air from the glass columns prepared as described above at 65° C. and 75° C., respectively was also investigated. The test persons had abstained from smoking or having nicotine in any other way for 12 h before the test.
smiles,measurement,setting,value
CN1CCCC1c1cccnc1 (centres unmarked) [nicotine],Cmax,column at 65 °C,5 ng/mL
same,Cmax,column at 75 °C,10 to 15 ng/mL
